In patent publication US6878698B2, “Anti-inflammatory androstane derivatives” (Glaxo Group Limited, priority 2001, dated 2005):
pEC50: −log10 of the molar value. Entries after “also recorded” stand apart in the source; their conditions may differ.

How the values were obtained:
lung eosinophilia = assay: Ovalbumin sensitised Brown Norway rat eosinophilia model; type: in vivo; details: for inhibition of lung eosinophilia: single intra-tracheal dose of 30 μg, suspension in saline, 30 min prior to ovalbumin challenge
Method: Pharmacological activity in vivo was assessed in an ovalbumin sensitised Brown Norway rat eosinophilia model. This model is designed to mimic allergen induced lung eosinophilia, a major component of lung inflammation in asthma.

thymus weight = assay: Rat model of thymus involution; type: in vivo; details: 3 daily IT doses of 100 μg
[1] = Pharmacokinetics after intra-tracheal dry powder dosing in the pig; type: in vivo; details: for time after dosing up to which quantifiable in plasma / AUC (0-inf): 1 mg intra-tracheal dry powder; for time after dosing up to which quantifiable in plasma: LC-MS/MS, lower limits of quantitation 10 and 20 pg/mL; for Cmax: 1 mg intra-tracheal dry powder blend in lactose, anaesthetised; for AUC (0-inf): Example 1 value calculated with plasma half-life from IV dosing
Method: Serial blood samples were taken for up to 8 h following dosing.

[2] = Pharmacokinetics after intravenous administration in the anaesthetised pig; type: in vivo; details: mixture of the two compounds IV at 0.1 mg/kg
Source text: The clearance of these two glucocortocoids is similar is this experimental pig model.

in vivo = details: male, Wistar Han, rat, plasma, iv, 0.1 mg/kg
[3] = Pharmacokinetics after intravenous (IV) and oral dosing in rats; details: for plasma clearance (in words): in vivo in the rat
human hepatocytes = assay: In vitro metabolism in human hepatocytes; type: in vitro ADME; details: 17-β carboxylic acid (X) the only significant metabolite
rat hepatocytes = assay: In vitro metabolism in rat hepatocytes; type: in vitro ADME; details: 17-β carboxylic acid (X) the only significant metabolite
glucocorticoid receptor = target: T1, glucocorticoid receptor (Homo sapiens, UniProt P04150); assay: Functional in vitro assay of glucocorticoid agonist activity (A549 cells, NF-κB/ELAM promoter sPAP reporter, TNF stimulated); type: cell-based; details: for pEC50: A549 cells, NF-κB responsive sPAP reporter, compound 1 hour at 37° C., then TNF 10 ng/ml for 16 hours
T1 construct: A549 cells stably transfected with a reporter gene containing the NF-κB responsive elements from the ELAM gene promoter; endogenous in cells; host or cells: A549 cells stably transfected with the reporter gene only
T1 sequence (P04150 1-777): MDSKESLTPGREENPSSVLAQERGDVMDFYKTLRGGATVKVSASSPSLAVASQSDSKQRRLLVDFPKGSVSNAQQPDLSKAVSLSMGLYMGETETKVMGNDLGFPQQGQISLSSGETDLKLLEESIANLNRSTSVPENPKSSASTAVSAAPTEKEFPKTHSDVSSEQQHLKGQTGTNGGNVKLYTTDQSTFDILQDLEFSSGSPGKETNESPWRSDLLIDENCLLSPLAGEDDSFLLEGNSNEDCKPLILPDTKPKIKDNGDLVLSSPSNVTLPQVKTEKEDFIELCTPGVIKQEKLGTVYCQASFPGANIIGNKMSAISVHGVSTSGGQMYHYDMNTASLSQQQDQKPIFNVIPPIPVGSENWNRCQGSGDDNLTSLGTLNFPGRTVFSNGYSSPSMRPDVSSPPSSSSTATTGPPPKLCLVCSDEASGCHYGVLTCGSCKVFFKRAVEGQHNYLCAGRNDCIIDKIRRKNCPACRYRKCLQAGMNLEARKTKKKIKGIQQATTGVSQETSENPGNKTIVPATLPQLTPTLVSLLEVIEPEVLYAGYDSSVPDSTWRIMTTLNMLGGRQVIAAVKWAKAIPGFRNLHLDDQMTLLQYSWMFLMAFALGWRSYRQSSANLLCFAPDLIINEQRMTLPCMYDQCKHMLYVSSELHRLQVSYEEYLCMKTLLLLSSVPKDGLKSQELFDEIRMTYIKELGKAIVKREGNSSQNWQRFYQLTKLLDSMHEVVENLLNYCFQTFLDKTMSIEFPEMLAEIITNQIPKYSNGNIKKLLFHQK
Method: Pharmacological activity was assessed in a functional in vitro assay of glucocorticoid agonist activity which is generally predictive of anti-inflammatory or anti-allergic activity in vivo.
A549 cells stably transfected with a reporter gene containing the NF-κB responsive elements from the ELAM gene promoter coupled to sPAP (secreted alkaline phosphatase) were treated with test compounds at appropriate doses for 1 hour at 37° C. […] Dose response curves were constructed from which EC50 values were estimated.

[4] = target: T2, glucocorticoid receptor (GR) (Homo sapiens, UniProt P04150); assay: Transactivation (GR): renilla luciferase reporter with glucocorticoid response elements in A549 cells; type: cell-based; details: GRE renilla luciferase reporter, 1 h compound, then 0.5 ng/ml TNFα, further 15 hours, read-out: Transactivation (GR) ED50
Source text: (§1) The glucocorticoid receptor (GR) can function in at least two distinct mechanisms, by upregulating gene expression through the direct binding of GR to specific sequences in gene promoters, and by downregulating gene expression that is being driven by other transcription factors (such as NFκB or AP-1) through their direct interaction with GR.
(§2) The first cell line contains the firefly luciferase reporter gene under the control of a synthetic promoter that specifically responds to activation of the transcription factor NFκB when stimulated with TNFα. The second cell line contains the renilla luciferase reporter gene under the control of a synthetic promotor that comprises 3 copies of the consensus glucocorticoid response element, and which responds to direct stimulation by glucocorticoids. Simultaneous measurement of transactivation and transrepression was conducted by mixing the two cell lines in a 1:1 ratio in 96 well plate (40,000 cells per well) and growing overnight at 37° C. Test compounds were dissolved in DMSO, and added to the cells at a final DMSO concentration of 0.7%. After incubation for 1 h 0.5 ng/ml TNFα (R&D Systems) was added and after a further 15 hours at 37° C., the levels of firefly and renilla luciferase were measured using the Packard Firelite kit following the manufacturers' directions. Dose response curves were constructed from which EC50 values were determined.

[5] = target: T2, glucocorticoid receptor (GR); assay: Transrepression (NFκB): firefly luciferase NFκB reporter in A549 cells stimulated with TNFα; type: cell-based; details: 1 h compound, then 0.5 ng/ml TNFα, further 15 hours, read-out: Transrepression (NFκB) ED50
Source text: as §1, §2

In the case of `CCC(=O)O[C@]1(C(=O)SCF)[C@H](C)C[C@H]2[C@@H]3C[C@H](F)C4=CC(=O)C=C[C@]4(C)[C@@]3(F)[C@@H](O)C[C@@]21C` [Fluticasone propionate, 6α, 9α-Difluoro-17α-(1-oxopropoxy)-11β-hydroxy-16α-methyl-3-oxo-androsta-1,4-diene-17β-carbothioic acid S-fluoromethyl ester, reference compound], the “inhibition of lung eosinophilia” value (lung eosinophilia) was 41%, the “reduction of thymus weight” value (thymus weight) was 78% and the “time after dosing up to which quantifiable in plasma” value [1] was “up to 8 hours”. The “clearance (in words)” value [2] was “similar” and the “pharmacokinetic parameters following intravenous administration (in words)” value [2] was “the same”.

For `Cc1ccoc1C(=O)OC1(C(=O)SCF)C(C)CC2C3CC(F)C4=CC(=O)C=CC4(C)C3(F)C(O)CC21C` (stereo not drawn) [Example 19, 6α,9α-Difluoro-11β-hydroxy-16α-methyl-17α-[(3-methylfuran-2-carbonyl)oxy]-3-oxo-androsta-1,4-diene-17β-carbothioic acid S-fluoromethyl ester], the clearance (in vivo) was 48 mL/min/kg and the “plasma clearance (in words)” value [3] was “approaching hepatic blood flow”.

With `CC1CC2C3CC(F)C4=CC(=O)C=CC4(C)C3(F)C(O)CC2(C)C1(OC(=O)c1ccsc1)C(=O)SCF` (stereo not drawn) [Example 4, 6α,9α-Difluoro-11β-hydroxy-16α-methyl-3-oxo-17α-[(3-thienylcarbonyl)oxy]-androsta-1,4-diene-17β-carbothioic acid S-fluoromethyl ester] the clearance (in vivo) was 49 mL/min/kg and the “plasma clearance (in words)” value [3] was “approaching hepatic blood flow”.

With `Cc1cc(C(=O)OC2(C(=O)SCF)C(C)CC3C4CC(F)C5=CC(=O)C=CC5(C)C4(F)C(O)CC32C)on1` (stereo not drawn) [Example 25, 6α,9α-Difluoro-11β-hydroxy-16α-methyl-17α-[(3-methylisoxazole-5-carbonyl)oxy]-3-oxo-androsta-1,4-diene-17β-carbothioic acid S-fluoromethyl ester] the clearance (in vivo) was 46 mL/min/kg and the “plasma clearance (in words)” value [3] was “approaching hepatic blood flow”.

In the case of `C[C@@H]1CC2C3C[C@H](F)C4=CC(=O)C=C[C@]4(C)[C@@]3(F)[C@@H](O)C[C@]2(C)[C@@]1(OC(=O)c1ccco1)C(=O)SCF` (stereo partly drawn) [Example 1, 6α,9α-Difluoro-17α-[(2-furanylcarbonyl)oxy]-11β-hydroxy-16α-methyl-3-oxo-androsta-1,4-diene-17β-carbothioic acid S-fluoromethyl ester], the “inhibition of lung eosinophilia (in words)” value (lung eosinophilia; intra-tracheal suspension in saline 30 min prior to ovalbumin challenge) was “dose dependant inhibition”, the “inhibition of lung eosinophilia” value (lung eosinophilia) was 69% and the “reduction of thymus weight” value (thymus weight) was 67%. For the same compound, the “manner of metabolism (in words)” value (human hepatocytes) was “metabolised in an identical manner to fluticasone propionate”, the “manner of metabolism (in words)” value (rat hepatocytes) was “metabolised in an identical manner to fluticasone propionate” and the “time after dosing up to which quantifiable in plasma” value [1] was “up to 2 hours”. For the same compound, the “Cmax” value ([1]; Pig 1) was 0.117 ng/mL, the “AUC (0-inf)” value ([1]; Pig 1) was 0.254 ng·h/mL and the “Cmax” value ([1]; Pig 2) was 0.081 ng/mL. The “AUC (0-inf)” value ([1]; Pig 2) was 0.221 ng·h/mL, the “systemic exposure compared to fluticasone propionate (in words)” value ([1]; dry powder delivery to the lungs of anaesthetised pigs) was “markedly reduced systemic exposure; also recorded: significantly lower exposure” and the “clearance (in words)” value [2] was “similar”. The “pharmacokinetic parameters following intravenous administration (in words)” value [2] was “the same”, the plasma clearance ([3]; IV 0.1 mg/kg, male Wistar Han rats) was 47.3 mL/min/kg and the “plasma clearance (in words)” value [3] was “approaching hepatic blood flow”.

For `CC1CC2C3CC(F)C4=CC(=O)C=CC4(C)C3(F)C(O)CC2(C)C1(OC(=O)c1ccon1)C(=O)SCF` (stereo not drawn) [Example 28, 6α,9α-Difluoro-11β-hydroxy-17α-[(isoxazole-3-carbonyl)oxy]-16α-methyl-3-oxo-androsta-1,4-diene-17β-carbothioic acid S-fluoromethyl ester], the clearance (in vivo) was 51 mL/min/kg and the “plasma clearance (in words)” value [3] was “approaching hepatic blood flow”.

With `Cc1ncsc1C(=O)OC1(C(=O)SCF)C(C)CC2C3CC(F)C4=CC(=O)C=CC4(C)C3(F)C(O)CC21C` (stereo not drawn) [Example 41, 6α,9α-Difluoro-11β-hydroxy-16α-methyl-17α-[(4-methyl-1,3-thiazole-5-carbonyl)oxy]-3-oxo-androsta-1,4-diene-17β-carbothioic acid S-fluoromethyl ester] the clearance (in vivo) was 42 mL/min/kg.

Compound `C[C@@H]1C[C@H]2[C@@H]3C[C@H](F)C4=CC(=O)C=C[C@]4(C)[C@@]3(F)[C@@H](O)C[C@]2(C)[C@@]1(OC(=O)c1cc(Cl)sc1Cl)C(=O)SCF` [Example 14, 17α-[(2,5-Dichlorothiophene-3-carbonyl)oxy]-6α,9α-difluoro-11β-hydroxy-16α-methyl-3-oxo-androsta-1,4-diene-17β-carbothioic acid S-fluoromethyl ester] has a pEC50 (glucocorticoid receptor) of 8.70.

In the case of `Cc1nc(C)c(C(=O)O[C@]2(C(=O)SCF)[C@H](C)C[C@H]3[C@@H]4C[C@H](F)C5=CC(=O)C=C[C@]5(C)[C@@]4(F)[C@@H](O)C[C@@]32C)s1` [Example 23, 6α,9α-Difluoro-17α-[(2,4-dimethyl-1,3-thiazole-5-carbonyl)oxy]-11β-hydroxy-16α-methyl-3-oxo-androsta-1,4-diene-17 β-carbothioic acid S-fluoromethyl ester], the pEC50 (glucocorticoid receptor) was 7.77.

In the case of `Cc1cc(C(=O)OC2(C(=O)SCF)C(C)CC3C4CC(F)C5=CC(=O)C=CC5(C)C4(F)C(O)CC32C)no1` (stereo not drawn) [Example 24, 6α,9α-Difluoro-11β-hydroxy-16α-methyl-17α-[(5-methylisoxazole-3-carbonyl)oxy]-3-oxo-androsta-1,4-diene-17β-carbothioic acid S-fluoromethyl ester], the clearance (in vivo) was 47 mL/min/kg and the “plasma clearance (in words)” value [3] was “approaching hepatic blood flow”.

With `C[C@@H]1C[C@H]2[C@@H]3C[C@H](F)C4=CC(=O)C=C[C@]4(C)[C@@]3(F)[C@@H](O)C[C@]2(C)[C@@]1(OC(=O)c1ccco1)C(=O)O` [Metabolite (X)] the “fold less active than the parent compound” value (glucocorticoid receptor; in vitro functional glucocorticoid agonist assays, relative to Example 1) was > 1000 fold, the pEC50 [4] was < 6.60 and the pEC50 [5] was < 6.00.

In the case of `Cc1noc(C)c1C(=O)O[C@]1(C(=O)SCF)[C@H](C)C[C@H]2[C@@H]3C[C@H](F)C4=CC(=O)C=C[C@]4(C)[C@@]3(F)[C@@H](O)C[C@@]21C` [Example 10, 6α,9α-Difluoro-17α-[(3,5-dimethylisoxazole-4-carbonyl)oxy]-11β-hydroxy-16α-methyl-3-oxo-androsta-1,4-diene-17β-carbothioic acid S-fluoromethyl ester], the pEC50 (glucocorticoid receptor) was 9.00.
